Reference: patent US11827628B2, “Compositions and methods for inhibition of the JAK pathway” (Rigel Pharmaceuticals, Inc., priority 2005, dated 2023)
Structures can show the parent of a compound that is named as a salt. Where two headings read alike, the source gives them in different places. Each block holds one molecule with its values, some of them ahead of it.

Key:
[1] = system: Primary human T-cells; test: Primary Human T-Cell Proliferation Assay Stimulated with IL-2 (CellTiter-Glo); format: cell-based; details: read-out: IC50, Example 42
Source text: The activity of the active compounds of the invention may further be characterized by assaying the effect of the 2,4-substituted pyrimidinediamine compounds described herein on the proliferative response of primary human T-cells. In this assay, primary human T-cells derived from peripheral blood and pre-activated through stimulation of the T-cell receptor and CD28, proliferate in culture in response to the cytokine Interleukin-2 (IL-2). This proliferative response is dependent on the activation of JAK1 and JAK3 tyrosine kinases, which phosphorylate and activate the transcription factor Stat-5. The primary human T-cells are incubated with the 2,4-substituted pyrimidinediamine compounds in the presence of IL-2 for 72 hours and at the assay endpoint intracellular ATP concentrations are measured to assess cell viability. A reduction in cell proliferation compared to control conditions is indicative of inhibition of the JAK kinase pathway. An exemplary assay of this type is described in greater detail in Example 42
Primary human T-cells derived from peripheral blood and pre-activated through stimulation of the T-cell receptor and CD28, proliferate in vitro in response to the cytokine Interleukin-2 (IL-2). This proliferative response is dependent on the activation of JAK-1 and JAK-3 tyrosine kinases, which phosphorylate and activate the transcription factor Stat-5.
Human primary T cells were prepared as follows. Whole blood was obtained from a healthy volunteer, mixed 1:1 with PBS, layered on to Ficoll Hypaque (Amersham Pharmacia Biotech, Piscataway, NJ, Catalog #17-1440-03) in 2:1 blood/PBS:ficoll ratio and centrifuged for 30 min at 4° C. at 1750 rpm. The lymphocytes at the serum: ficoll interface were recovered and washed twice with 5 volumes of PBS. The cells were resuspended in Yssel's medium (Gemini Bio-products, Woodland, CA, Catalog #400-103) containing 40 U/mL recombinant IL2 (R and D Systems, Minneapolis, MN, Catalog #202-IL (20 rig)) and seeded into a flask pre-coated with 1 μg/mL anti-CD3 (BD Pharmingen, San Diego, CA, Catalog #555336) and 5 μg/mL anti-CD28 (Immunotech, Beckman Coulter of Brea CA, Catalog #IM1376). The primary T-cells were stimulated for 3-4 days, then transferred to a fresh flask and maintained in RPMI with 10% FBS and 40 U/mL IL-2.
Primary T-cells were washed twice with PBS to remove the IL-2 and resuspended in Yssel's medium at 2×10^6 cells/mL. 50 μL of cell suspension containing 80 U/mL IL-2 was added to each well of a flat bottom 96 well black plate. For the unstimulated control, IL-2 was omitted from the last column on the plate. Compounds were serially diluted in dimethyl sulfoxide (DMSO, 99.7% pure, cell culture tested, Sigma-Aldrich, St. Louis, MO, Catalog No. D2650) from 5 mM in 3-fold dilutions, and then diluted 1:250 in Yssel's medium. 50 μL of 2× compound was added per well in duplicate and the cells were allowed to proliferate for 72 hours at 37° C.
Proliferation was measured using CellTiter-Glo® Luminescent Cell Viability Assay (Promega), which determines the number of viable cells in culture based on quantitation of the ATP present, as an indicator of metabolically active cells. The substrate was thawed and allowed to come to room temperature. After mixing the Cell Titer-Glo reagent and diluent together, 100 μL was added to each well. The plates were mixed on an orbital shaker for two minutes to induce lysis and incubated at room temperature for an additional ten minutes to allow the signal to equilibrate. Detection was performed using a Wallac Victor2 1420 multilabel counter purchased from Perkin Elmer, Shelton, CT The IC50 calculated based on the results of this assay are provided in TABLE XII.

[2] = system: IL-4 stimulated expression of CD23 in human Ramos B cells (JAK-1 and JAK-3); test: Assay for Ramos B-Cell Line Stimulated with IL-4 (CD23 upregulation, FACS); format: cell-based; details: read-out: IC50, Example 41
How it was run: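 Log-phase Ramos cells, 1 h compound pre-incubation at 37 °C; IL-4 50 units/mL final, 20-24 h; CD23-PE stain, FACS; IC50.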

[3] = primary human T-cells stimulated with IL-2, proliferation
[4] = Ramos B cells stimulated with IL-4, CD23 expression by FACS
[5] = primary human T-cell proliferation stimulated with IL-2
[6] = Ramos B-cell line stimulated with IL-4, CD23 expression by FACS
[7] = Homo sapiens, T-cell, primary human T-cell proliferation stimulated with IL-2
[8] = Homo sapiens, Ramos, Ramos B-cell line stimulated with IL-4, CD23 expression by FACS
[9] = Homo sapiens, T-cell, primary human T-cells stimulated with IL-2, proliferation
[10] = Homo sapiens, Ramos, Ramos B cells stimulated with IL-4, CD23 expression by FACS

IC50 [2, 4]: 315 nM
Molecule: NS(=O)(=O)c1cc(Nc2ncc(F)c(Nc3ccc(OCC(F)(F)F)cc3)n2)ccc1Cl [VI-48, N2-(3-Aminosulfonyl-4-chlorophenyl)-5-fluoro-N4-(4-trifluoromethylmethyleneoxyphenyl)-2,4-pyrimidinediamine]
IC50 [1, 3]: 2240 nM

IC50 [2, 6]: 183 nM
Molecule: CCn1nccc1NC(=O)Cc1ccc(Nc2nc(Nc3ccc(C)c(S(N)(=O)=O)c3)ncc2F)cc1 [III-52, N2-(3-Aminosulfonyl-4-methylphenyl)-5-N4-[(1-ethylpyrazolyl-5-aminocarbonylmethylene)phenyl]-5-fluoro-2,4-pyrimidinediamine]
IC50 [1, 5]: 1200 nM

IC50 [2, 6]: 394 nM
Molecule: CCC(=O)NCc1ccc(Nc2nc(Nc3cccc(S(N)(=O)=O)c3)ncc2F)cc1 [III-36, N2-(3-aminosulfonyl)phenyl-N4-(4-ethylcarbonylaminomethyl)phenyl-5-fluoro-2,4-pyrimidinediamine]
IC50 [1, 5]: 382 nM

IC50 [2, 4]: 173 nM
Molecule: CNS(=O)(=O)c1cc(Nc2ncc(F)c(Nc3ccc(Cn4ccnc4C)cc3)n2)ccc1C [III-93, 5-Fluoro-N2-[3-(N-methylaminosulfony)-4-methylphenyl]-N4-[4-(2-methyl-1-imidazolylmethyl)phenyl]-2,4-pyrimidinediamine]
IC50 [1, 3]: 819 nM

IC50 [2, 6]: 272 nM
Molecule: COc1cc(Nc2nc(Nc3ccc(C)c(S(N)(=O)=O)c3)ncc2F)ccc1CCC#N [III-25, N2-(3-Aminosulfonyl-4-methylphenyl)-N4-(4-cyanoethylene-3-methoxyphenyl)-5-fluoro-2,4-pyrimidinediamine]
IC50 [1, 5]: 1260 nM

IC50 [2, 10]: 62.2 nM
Molecule: COc1ccc(Nc2nc(Nc3ccc(S(N)(=O)=O)cc3)ncc2F)cc1Cl [VI-106, N2-(4-Aminosulfonylphenyl)-5-fluoro-N4-(4-methoxy-3-chlorophenyl]-2,4-pyrimidinediamine]
IC50 [1, 9]: 1200 nM

IC50 [2, 10]: 401 nM
Molecule: Cc1ccc(Nc2ncc(F)c(Nc3ccc(Cl)c(C(F)(F)F)c3)n2)cc1S(N)(=O)=O [VI-39, N2-(3-Aminosulfonyl-4-methyl-phenyl)-N4-(4-chloro-3-trifluoromethylphenyl)-5-fluoro-2,4-pyrimidinediamine]
IC50 [1, 9]: 3140 nM

IC50 [2, 6]: 3630 nM
Molecule: CCC(=O)NS(=O)(=O)c1cc(Nc2ncc(F)c(Nc3ccc(CCC#N)c(Cl)c3)n2)ccc1C [III-29, N4-(3-Chloro-4-cyanoethylene-phenyl)-5-fluoro-N2-(4-methyl-3-propionylaminosulfonylphenyl)-2,4-pyrimidinediamine Sodium salt]
IC50 [1, 5]: 12400 nM

IC50 [2, 8]: 1680 nM
Molecule: NC(=O)NCc1ccc(Nc2nc(Nc3cccc(S(N)(=O)=O)c3)ncc2F)cc1 [III-33, N4-(4-Aminocarbonylaminomethylphenyl)-N2-(3-aminosulfonylphenyl)-5-fluoro-2,4-pyrimidinediamine]
IC50 [1, 7]: 852 nM

IC50 [2, 8]: 295 nM
Molecule: N#CCCc1ccc(Nc2nc(Nc3ccc(Cl)c(S(N)(=O)=O)c3)ncc2F)cc1 [III-13, N2-(3-Aminosulfonyl-4-chlorophenyl)-N4-[4-(2-cyanoethyl)phenyl]-5-fluoro-2,4-pyrimidinediamine]
IC50 [1, 7]: 701 nM

IC50 [2, 4]: 302 nM
Molecule: CNS(=O)(=O)c1cc(Nc2ncc(F)c(Nc3ccc(Cn4cncn4)cc3)n2)ccc1C [III-102, 5-Fluoro-N2-[3-(N-methylaminosulfony)-4-methylphenyl]-N4-{4-[1-(1,2,4-thazolyl)methyl]phenyl}-2,4-pyrimidinediamine]
IC50 [1, 3]: 486 nM

IC50 [2, 10]: 46.9 nM
Molecule: CN1C(=O)COc2ccc(Nc3nc(Nc4cccc(S(N)(=O)=O)c4)ncc3F)cc21 [VII-41, N2-(3-Aminosulfonylphenyl)-5-fluoro-N4-(4-methyl-3-oxo-benz[1,4]oxazin-6-yl)-2,4-pyrimidinediamine]
IC50 [1, 9]: 264 nM

IC50 [2, 4]: 1030 nM
Molecule: NS(=O)(=O)c1ccc(Nc2ncc(F)c(Nc3ccc(Cn4cncn4)cc3)n2)cc1 [III-99, N2-(4-Aminosulfonylphenyl)-5-fluoro-N4-{4-[1-(1,2,4-thazolyl)methyl]phenyl}-2,4-pyrimidinediamine]
IC50 [1, 3]: 2170 nM

IC50 [2, 8]: 144 nM
Molecule: NC(=O)OCCc1ccc(Nc2nc(Nc3ccc(Cl)c(S(N)(=O)=O)c3)ncc2F)cc1 [III-55, N4-{4-[2-(Aminocarbonyloxy)ethyl]phenyl}-N2-(3-aminosulfonyl-4-chlorophenyl)-5-fluoro-2,4-pyrimidinediamine]
IC50 [1, 7]: 973 nM

IC50 [2, 6]: 198 nM
Molecule: NS(=O)(=O)c1ccc(Nc2ncc(F)c(Nc3cccc(CNC(=O)C4CC4)c3)n2)cc1 [III-38, N2-(4-aminosulfonyl)phenyl-N4-(3-cyclopropylcarbonylaminomethyl)phenyl-5-fluoro-2,4-pyrimidinediamine]
IC50 [1, 5]: 1130 nM

The next lines start with the molecule.

Molecule: CNS(=O)(=O)c1cc(Nc2ncc(F)c(Nc3ccc(OCc4ccncc4)cc3)n2)ccc1C [Compound I-195, 5-Fluoro-N2-[3-(N-methylaminosulfony)-4-methylphenyl]-5-fluoro-N4-[4-(4-pyridinyl)methyleneoxyphenyl]-2,4-pyrimidinediamine]
IC50 [1, 5]: 127 nM | IC50 [2, 6]: 82.6 nM

Molecule: CNC(=O)COc1ccc(Nc2nc(Nc3ccc(Cl)c(S(N)(=O)=O)c3)ncc2F)cc1Cl [Compound I-152, N2-(3-Aminosulfonyl-4-chlorophenyl)-N4-(3-chloro-4-methylaminocarbonylmethoxyphenyl)-5-fluoro-2,4-pyrimidinediamine]
IC50 [1, 7]: 1540 nM | IC50 [2, 8]: 302 nM

Molecule: Cc1ccc(Nc2ncc(F)c(Nc3ccc(-c4ccccn4)c(OCCl)c3)n2)cc1S(N)(=O)=O [Compound I-174, N2-(3-Aminosulfonyl-4-methylphenyl)-5-fluoro-N4-[4-(2-pyridinyl)-3-chloromethyleneoxyphenyl]-2,4-pyrimidinediamine]
IC50 [1, 5]: 1230 nM | IC50 [2, 6]: 117 nM

Molecule: CNS(=O)(=O)c1cc(Nc2ncc(F)c(Nc3ccc(Oc4ccncc4)cc3)n2)ccc1C [II-18, 5-Fluoro-N2-[3-(N-methylaminosulfony)-4-methylphenyl]-5-fluoro-N4-[4-(4-pyridyloxy)phenyl]-2,4-pyrimidinediamine]
IC50 [1, 5]: 3310 nM | IC50 [2, 6]: 2040 nM

Molecule: Cc1cc(COc2ccc(Nc3nc(Nc4ccc(S(N)(=O)=O)cc4)ncc3F)cc2C)no1 [Compound I-240, N2-(4-Aminosulfonylphenyl)-5-fluoro-N4-[3methyl-4-(5-methylisoxazol-3-yl)methyleneoxyphenyl]-2,4-pyrimidinediamine]
IC50 [1, 5]: 5260 nM | IC50 [2, 6]: 205 nM

Molecule: N2-(3-Aminosulfonyl-4-chlorophenyl)-N4-(4-benzylphenyl)-5-fluoro-2,4-pyrimidinediamine [III-64]
IC50 [1, 5]: 5960 nM | IC50 [2, 6]: 447 nM

Molecule: COC(=O)c1ccc(Nc2nc(Nc3cccc(S(N)(=O)=O)c3)ncc2F)s1 [IX-47, N2-(3-Aminosulfonylphenyl)-5-fluoro-N4-(5-methoxycarbonyl-thiophene-2-yl)-2,4-pyrimidinediamine]
IC50 [1, 9]: 2390 nM | IC50 [2, 10]: 223 nM

Molecule: COC(=O)c1ccc(Nc2nc(Nc3ccc(S(N)(=O)=O)cc3)ncc2F)s1 [IX-49, N2-(4-Aminosulfonylphenyl)-5-fluoro-N4-(5-methoxycarbonyl-thiophene-2-yl)-2,4-pyrimidinediamine]
IC50 [1, 9]: 61900 nM | IC50 [2, 10]: 96.5 nM
